The source of these data is patent publication US20090233342A1, “HETEROLOGOUS EXPRESSION OF PROTEORHODOPSIN PHOTOSYSTEM” (priority 2007, published 2009).

One assay relates to HF10—19P19 cells. As to the kind of experiment: Proton-pumping assay (light-driven pH change of cell suspension). The conditions noted are these: PR^+ HF10—19P19 cells; CCCP 25 μM (2 h dark preincubation), DCCD 1 mM (20 h dark preincubation). Format: cell-based, Escherichia coli. As for the experimental part: FIG. 3. Light-activated, PR-enabled photophosphorylation in E. coli. (A) Diagram of the proposed mechanism of PR-dependent ATP synthesis. The effects of the inhibitors used are indicated. (B) Proton-pumping assays with HF10—19P19 cells. pH measurements are expressed as the pH change respect to the pH at time 0 for each sample. CCCP, 25 μM; DCCD, 1 mM. Gray boxes indicate dark periods. (C) ATP assays with HF10—19P19 cells. Results are expressed as the difference between the ATP level in the light and the ATP level in the dark, ΔATP, for each treatment.
Fosmid Library. The HOT—10m fosmid library screened in this work has been described previously (14). It contains DNA from a planktonic sample collected 10 m below the surface at the ALOHA station (22°45′ N, 158°W) of the Hawaii Ocean Time series (HOT) cloned into the copy-controlled pCC1FOS fosmid vector (Epicentre Biotechnologies, Madison, Wis.). The library host, E. coli EPI300 (Epicentre Biotechnologies), supports the copy-control option of pCC1FOS. Screening for PR Expression. High-density colony macroarrays [12,280 clones of the HOT—10m library (ref. 14)] were prepared on a Performa II filter (Genetix Ltd., Boston, Mass.) by using a Q-PixII robot (Genetix Ltd.). […] The color phenotype of individual Tn5-insertion clones was analyzed on LB plates containing chloramphenicol, kanamycin, and 0.02% L-arabinose as above. […]

For the next assay, the system named is PR^+ E. coli cells. The format is cell-based, Escherichia coli. The conditions noted are these: for effect on photophosphorylation (light-driven ATP synthesis, ΔATP light minus dark): PR^+ HF10—19P19 cells, CCCP 25 μM (2 h dark preincubation), DCCD 1 mM (20 h dark preincubation).

Take `N#CC(C#N)=NNc1cccc(Cl)c1` [CCCP, carbonylcyanide m-chlorophenylhydrazone]: in the assay with HF10—19P19 cells, the “effect on light-driven decrease in pH (PR-catalyzed proton translocation)” value is listed as “completely abolished”. In addition, the “effect on photophosphorylation (light-driven ATP synthesis, ΔATP light minus dark)” value with PR^+ E. coli cells is on record as “completely abolished”.

`C(=NC1CCCCC1)=NC1CCCCC1` [DCCD, N,N′-dicyclohexylcarbodiimide]: in the assay with HF10—19P19 cells, the “effect on light-driven decrease in pH (PR-catalyzed proton translocation)” value is “did not affect”. Also, the “effect on photophosphorylation (light-driven ATP synthesis, ΔATP light minus dark)” value in the assay on PR^+ E. coli cells is “completely abolished”.

On to `O=C(O)CCC(=O)O` [succinate], for which the “net gain of ATP by oxidative phosphorylation” value with PR^+ E. coli cells (5 min after addition of 0.2% succinate to PR^+ cells in the dark, data not shown) is 9×10^5 ATP molecules per live cell.
